Laboratory results: patent US20120058206A1, “ANTIALLERGIC MARINE BIOPOLYMERS” (MARINOMED BIOTECHNOLOGIE GMBH, priority 2008, published 2012)

Tested on: CFTL12 Mast cells stimulated with IgE/antigen complex (TNF-alpha release)
Experiment: Inhibition of TNF-alpha production from IgE/antigen stimulated mast cells
Format: cell-based, mouse
Settings: 60 minutes before IgE/antigen stimulation; for inhibition of TNF-alpha release: carrageenan 200 μg/ml, 6 hours at 37° C., supernatant ELISA (FIG. 1)
Method: TNF-alpha is a mediator that is central in an inflammatory process as observed during infections, and autoimmune diseases. It is released by white blood cells, mast cells, endothelium and several other tissues in the course of damage.
CFTL12 Mast cells were incubated with iota or kappa carrageenan at a concentration of 200 μg/ml. 60 minutes later the cells were stimulated with an IgE/antigen complex. Cells were incubated at 37° C. for 6 hours and TNF-alpha in the supernatant was determined by a commercial mouse TNF-alpha ELISA (Bender-Med-Systems). Error bars indicate the standard deviation between 4 independent wells. 1=non-stimulated; 2=IgE/antigen stimulation; 3=lambda carrageenan pretretament+subsequent IgE/antigen stimulation; 4=kappa carrageenan pretreatment++subsequent IgE/antigen stimulation, 5=iota-carrageenan pretreatment+subsequent IgE/antigen stimulation. The Y-axis mirrors the concentration of TNF-alpha in pg/ml.
Mast cells were incubated with iota-carrageenan at varying concentrations. 60 minutes later the cells were stimulated with IgE/antigen complex. Cells were incubated at 37° C. for 6 hours and TNF-alpha in the supernatant was determined by a commercial mouse TNF-alpha ELISA (Bender-Med-Systems). Error bars indicate the standard deviation between 4 independent wells. 1=non-stimulated; 2=IgE/antigen stimulated, 3=iota-carrageenan 200 μg/ml, 4=iota-carrageenan 66 μg/ml, 5=iota-carrageenan 6.6 μg/ml, 6=iota-carrageenan 0.6 μg/ml. The Y-axis represents the concentration of TNF-alpha in pg/ml.

Row | Substance | dose dependence of inhibition of TNF-alpha production (200, 66, 6.6, 0.6 μg/ml, 6 hours (FIG. 2)) | inhibition of TNF-alpha release
1 | iota-carrageenan | Dose-Dependent Inhibition | inhibit TNF-alpha release
2 | kappa carrageenan | – | inhibit TNF-alpha release
3 | lambda carrageenan [reference compound] | – | not
